From ChEMBL document CHEMBL2346585, “Novel 1,3,4-oxadiazole thioether derivatives targeting thymidylate synthase as dual anticancer/antimicrobial agents” (Bioorg Med Chem, 2013)
In brackets after ≈: the same amount, converted by molar mass.

What was measured:
[1] = tested on: SGC-7901; assay: cells; details: Homo sapiens, SGC-7901, 48 h
Description: Cytotoxicity against human SGC7901 cells after 48 hrs by MTT assay

[2] = tested on: MCF7; assay: cells; details: Homo sapiens, MCF7, 48 h
Description: Cytotoxicity against human MCF7 cells after 48 hrs by MTT assay

[3] = tested on: HepG2; assay: cells; details: Homo sapiens, HepG2, 48 h
Description: Cytotoxicity against human HepG2 cells after 48 hrs by MTT assay

[4] = tested on: Staphylococcus aureus; assay: Antibacterial activity against Staphylococcus aureus ATCC 530 assessed as growth inhibition after 24 hrs by MTT assay; format: functional; details: ATCC 530, 24 h
[5] = tested on: Bacillus subtilis; assay: Antibacterial activity against Bacillus subtilis […] assessed as growth inhibition after 24 hrs by MTT assay; format: functional
[6] = tested on: Pseudomonas aeruginosa; assay: Antibacterial activity against Pseudomonas aeruginosa ATCC 27853 assessed as growth inhibition after 24 hrs by MTT assay; format: functional; details: ATCC 27853, 24 h
[7] = tested on: Escherichia coli; assay: Antibacterial activity against Escherichia coli ATCC 25922 assessed as growth inhibition after 24 hrs by MTT assay; format: functional; details: ATCC 25922, 24 h
[8] = Inhibition of Escherichia coli thymidylate synthase by spectrophotometric analysis

SMILES	IC50 [1]	IC50 [2]	IC50 [3]	MIC [4]	MIC [5]	MIC [6]	MIC [7]	IC50 [8]
Cc1ncc([N+](=O)[O-])n1CCSc1nnc(-c2cccc3ccccc23)o1	8.8 µM	30.1 µM	10.6 µM	–	–	–	–	–
Cc1ncc([N+](=O)[O-])n1CCSc1nnc(-c2ccccc2[N+](=O)[O-])o1	30 µM	18.3 µM	0.7 µM	1.56 µg/mL (≈ 4.15 µM)	3.13 µg/mL (≈ 8.32 µM)	3.13 µg/mL (≈ 8.32 µM)	1.56 µg/mL (≈ 4.15 µM)	0.47 µM
Cc1ncc([N+](=O)[O-])n1CCSc1nnc(-c2ccc(F)cc2)o1	5.3 µM	8.1 µM	0.6 µM	–	–	–	–	3.9 µM
Cc1ncc([N+](=O)[O-])n1CCSc1nnc(-c2ccc([N+](=O)[O-])cc2)o1	12.2 µM	12.7 µM	4.1 µM	–	–	–	–	–
Cc1ncc([N+](=O)[O-])n1CCSc1nnc(-c2ccc(N)nc2)o1	30.9 µM	26.8 µM	9.4 µM	–	–	–	–	–
Cc1ncc([N+](=O)[O-])n1CCSc1nnc(-c2ccc(N(C)C)cc2)o1	32.8 µM	14.9 µM	11.9 µM	–	–	–	–	–
Cc1ncc([N+](=O)[O-])n1CCSc1nnc(-c2ccccc2N)o1	35.1 µM	20.1 µM	4.5 µM	–	–	–	–	–
COc1cc(OC)cc(-c2nnc(SCCn3c([N+](=O)[O-])cnc3C)o2)c1	9.6 µM	12.8 µM	10.5 µM	–	–	–	–	–
Cc1ncc([N+](=O)[O-])n1CCSc1nnc(-c2cnccc2N)o1	34.5 µM	29.3 µM	8.4 µM	25 µg/mL (≈ 72 µM)	50 µg/mL (≈ 144 µM)	12.5 µg/mL (≈ 36 µM)	12.5 µg/mL (≈ 36 µM)	1.8 µM
Cc1ncc([N+](=O)[O-])n1CCSc1nnc(-c2ccnc(Cl)c2)o1	32.3 µM	40.5 µM	11.6 µM	–	–	–	–	4.1 µM
NC[C@H]1O[C@H](O[C@H]2[C@H](O)[C@@H](O[C@H]3O[C@H](CO)[C@@H](O)[C@H](N)[C@H]3O)[C@H](N)C[C@@H]2N)[C@H](O)[C@@H](O)[C@@H]1O [KANAMYCIN]	–	–	–	1.56 µg/mL (≈ 3.22 µM)	1.56 µg/mL (≈ 3.22 µM)	3.13 µg/mL (≈ 6.46 µM)	3.13 µg/mL (≈ 6.46 µM)	–
CCOc1ccccc1-c1nnc(SCCn2c([N+](=O)[O-])cnc2C)o1	30.3 µM	25.9 µM	9.8 µM	–	–	–	–	–
Cc1ncc([N+](=O)[O-])n1CCSc1nnc(-c2ccccc2F)o1	33.7 µM	20.5 µM	3.7 µM	–	–	–	–	–
Cc1ncc([N+](=O)[O-])n1CCSc1nnc(-c2ccccc2)o1	30.1 µM	20.5 µM	17.5 µM	–	–	–	–	–
Cc1ncc([N+](=O)[O-])n1CCSc1nnc(-c2ccc(C(C)C)cc2)o1	13.8 µM	20.7 µM	4.3 µM	–	–	–	–	> 10 µM
Cc1cccc(-c2nnc(SCCn3c([N+](=O)[O-])cnc3C)o2)c1O	35.9 µM	19.9 µM	8.7 µM	–	–	–	–	–
Cc1ncc([N+](=O)[O-])n1CCSc1nnc(-c2ccc(Cl)cc2)o1	31.9 µM	18.7 µM	7.8 µM	–	–	–	–	–
COc1ccccc1-c1nnc(SCCn2c([N+](=O)[O-])cnc2C)o1	30.5 µM	10.8 µM	10 µM	–	–	–	–	–
Cc1ncc([N+](=O)[O-])n1CCSc1nnc(-c2ccccc2Cl)o1	32.6 µM	22.5 µM	15.6 µM	–	–	–	–	–
COc1ccc(-c2nnc(SCCn3c([N+](=O)[O-])cnc3C)o2)c(O)c1	11.7 µM	21.8 µM	11 µM	–	–	–	–	–

SMILES	IC50 [1]	IC50 [2]	IC50 [3]	MIC [4]	MIC [5]	MIC [6]	MIC [7]	IC50 [8]
Cc1nc(=O)c2cc(CN(C)c3ccc(C(=O)N[C@@H](CCC(=O)O)C(=O)O)s3)ccc2[nH]1 [RALTITREXED]	8.7 µM	12.6 µM	1.3 µM	50 µg/mL (≈ 109 µM)	25 µg/mL (≈ 54.5 µM)	50 µg/mL (≈ 109 µM)	25 µg/mL (≈ 54.5 µM)	–
Cc1ncc([N+](=O)[O-])n1CCSc1nnc(-c2ccc(C(C)(C)C)cc2)o1	31.1 µM	22.1 µM	4 µM	–	–	–	–	> 10 µM
Cc1ncc([N+](=O)[O-])n1CCSc1nnc(-c2ccccn2)o1	30 µM	39.1 µM	20.2 µM	–	–	–	–	–
Cc1ccc(-c2nnc(SCCn3c([N+](=O)[O-])cnc3C)o2)c(O)c1	36.7 µM	23.5 µM	16.6 µM	–	–	–	–	–
Cc1ncc([N+](=O)[O-])n1CCSc1nnc(-c2ccc3ccccc3c2)o1	30.7 µM	34.1 µM	10.1 µM	–	–	–	–	–
Cc1ncc([N+](=O)[O-])n1CCSc1nnc(-c2ccnc(N)c2)o1	30 µM	20 µM	0.9 µM	25 µg/mL (≈ 72 µM)	50 µg/mL (≈ 144 µM)	6.25 µg/mL (≈ 18 µM)	3.13 µg/mL (≈ 9.01 µM)	1.27 µM
Cc1ncc([N+](=O)[O-])n1CCSc1nnc(-c2ccco2)o1	31.7 µM	29.5 µM	22.6 µM	–	–	–	–	–
Cc1ccccc1-c1nnc(SCCn2c([N+](=O)[O-])cnc2C)o1	32.3 µM	15.8 µM	5.1 µM	–	–	–	–	–
Cc1ccc(-c2nnc(SCCn3c([N+](=O)[O-])cnc3C)o2)cc1	12.5 µM	15.5 µM	2.2 µM	–	–	–	–	> 10 µM
CCOc1ccc(-c2nnc(SCCn3c([N+](=O)[O-])cnc3C)o2)cc1	14.1 µM	16.6 µM	1.9 µM	–	–	–	–	6.3 µM
Cc1ncc([N+](=O)[O-])n1CCSc1nnc(-c2cccs2)o1	30.8 µM	25.8 µM	20.5 µM	–	–	–	–	–
Cc1ncc([N+](=O)[O-])n1CCSc1nnc(-c2ccc3c(c2)OCCO3)o1	9.2 µM	14.5 µM	4.1 µM	–	–	–	–	2.4 µM
Cc1ncc([N+](=O)[O-])n1CCSc1nnc(-c2ccc(N)cc2)o1	31.7 µM	19.8 µM	6.7 µM	–	–	–	–	–
COc1ccc(-c2nnc(SCCn3c([N+](=O)[O-])cnc3C)o2)cc1	10.2 µM	10.6 µM	5.8 µM	–	–	–	–	–
Cc1ncc([N+](=O)[O-])n1CCSc1nnc(-c2cccnc2)o1	31.6 µM	28.7 µM	9.6 µM	–	–	–	–	–
O=c1[nH]cc(F)c(=O)[nH]1 [FLUOROURACIL]	28.9 µM	16.7 µM	22.8 µM	–	–	–	–	–
Nc1nc2[nH]cc(CCc3ccc(C(=O)N[C@@H](CCC(=O)O)C(=O)O)cc3)c2c(=O)[nH]1 [PEMETREXED]	–	–	–	–	–	–	–	76 µM
Cc1ncc([N+](=O)[O-])n1CCSc1nnc(-c2ccncc2)o1	15.9 µM	12.6 µM	14.8 µM	–	–	–	–	–
Cc1ncc([N+](=O)[O-])n1CCSc1nnc(-c2ccccc2O)o1	30.5 µM	28.3 µM	19.6 µM	–	–	–	–	–
COc1cc(-c2nnc(SCCn3c([N+](=O)[O-])cnc3C)o2)cc(OC)c1OC	34.8 µM	30.6 µM	14.9 µM	–	–	–	–	> 10 µM
